Data reported in DBAASP.
Values after ≈ are worked out from the molar mass of the structure shown. Values belong to the compound of their own block, whether it stands above or below them.

How the values were obtained:
Experiment in all cases: ≥ marks a high value that may be exact or a test limit, other limits are often not marked, values filed in µg/mL are converted to µM
[1] = test system: Streptococcus mitis ATCC 903
[2] = test system: Streptococcus gordonii Challis DL1
[3] = test system: Pseudomonas aeruginosa PAK
Staphylococcus aureus = test system: Staphylococcus aureus
[4] = test system: Streptococcus mutans UA159
[5] = test system: Streptococcus sanguinis NY101
Escherichia coli D31 = test system: Escherichia coli D31
[6] = test system: Pseudomonas syringae pv. tomato NCPPB 1106
Escherichia coli BL21AI = test system: Escherichia coli BL21AI
[7] = test system: Escherichia coli NCTC 9001
Escherichia coli DC2 = test system: Escherichia coli DC2
[8] = test system: Agrobacterium tumefaciens DSM 3129
[9] = test system: Klebsiella pneumoniae K6 ATCC 700603
[10] = test system: Clavibacter michiganensis subsp. insidiosus NCPPB 1109
[11] = test system: Micrococcus luteus ATCC 10240
[12] = test system: Staphylococcus aureus USA 300
[13] = test system: Escherichia coli DSM 10233
[14] = test system: Brenneria salicis NCPPB 2530
[15] = test system: Bacillus subtilis DSM 347
[16] = test system: Sinorhizobium meliloti ZB314
[17] = test system: Salmonella enterica subsp. enterica serovar Newport
[18] = test system: Bacillus megaterium QMB 1551
[19] = test system: Klebsiella pneumoniae DSM 681
Escherichia coli K-12 = test system: Escherichia coli K-12
[20] = test system: Salmonella typhimurium ATCC 23565
[21] = test system: Escherichia coli DSM 1103
[22] = test system: Salmonella enterica subsp. enterica serovar Typhimurium ATCC 700408
Shigella flexneri CP87 = test system: Shigella flexneri CP87
Spiroplasma citri R8A2 = test system: Spiroplasma citri R8A2
[23] = test system: Acholeplasma laidlawii A-EF22
[24] = test system: Neurospora crassa CBS 327-54
[25] = test system: Alternaria brassicicola MUCL 20297
[26] = test system: Fusarium culmorum MUCL 30162
Candida albicans = test system: Candida albicans
[27] = test system: Fusarium haematococcum 160.2.2
[28] = test system: Saccharomyces cerevisiae TGY 481 pJM600
Micrococcus luteus A270 = test system: Micrococcus luteus A270
[29] = test system: Fusarium oxysporum MUCL 909
Aspergillus fumigatus = test system: Aspergillus fumigatus
Bacillus megaterium MA = test system: Bacillus megaterium MA

MIC [1]: 5.97 µM (≈ 16 µg/mL)
MIC [2]: 11.9 µM (≈ 32 µg/mL)
MIC [3]: 23.3 µM (≈ 62.5 µg/mL)
MIC (Staphylococcus aureus): 46.7 µM (≈ 125 µg/mL)
MIC [4]: 2.99 µM (≈ 8 µg/mL)
MIC [5]: 11.9 µM (≈ 32 µg/mL)
Compound: CC[C@H](C)[C@H](NC(=O)[C@H](Cc1ccccc1)NC(=O)[C@H](Cc1cnc[nH]1)NC(=O)[C@H](CCCCN)NC(=O)[C@@H](NC(=O)[C@@H](N)Cc1ccccc1)[C@@H](C)CC)C(=O)N[C@@H](Cc1cnc[nH]1)C(=O)N[C@@H](CCCN=C(N)N)C(=O)N[C@@H](Cc1ccccc1)C(=O)N[C@@H](CO)C(=O)N[C@@H](C)C(=O)N[C@H](C(=O)N[C@@H](CCCN=C(N)N)C(=O)N[C@@H](Cc1c[nH]c2ccccc12)C(=O)N[C@@H](CCCN=C(N)N)C(=O)N[C@@H](Cc1c[nH]c2ccccc12)C(=O)N[C@@H](CCCN=C(N)N)C(=O)N[C@@H](Cc1c[nH]c2ccccc12)C(=O)N[C@@H](Cc1ccccc1)C(N)=O)[C@@H](C)O [FIKHFIHRFSATRWRWRWF]

MIC (Escherichia coli D31): 30.4 µM (≈ 64 µg/mL)
MIC [6]: 0.0949 µM (≈ 0.2 µg/mL)
MIC (Escherichia coli BL21AI): 0.465 µM (≈ 0.98 µg/mL)
MIC [7]: 0.0474 µM (≈ 0.0999 µg/mL)
MIC (Escherichia coli DC2): 1.85 µM (≈ 3.91 µg/mL)
MIC [8]: 0.0949 µM (≈ 0.2 µg/mL)
MIC [9]: 30.4 µM (≈ 64 µg/mL)
MIC [10]: 23.7 µM (≈ 50 µg/mL)
MIC [11]: 14.8 µM (≈ 31.3 µg/mL)
MIC [12]: ≥ 100 µM
MIC [13]: 0.925 µM (≈ 1.95 µg/mL)
MIC [14]: 0.0095 µM (≈ 0.02 µg/mL)
MIC [15]: ≥ 59.3 µM
MIC [16]: 0.0474 µM (≈ 0.0999 µg/mL)
MIC [17]: 0.0949 µM (≈ 0.2 µg/mL)
MIC [18]: ≥ 71.1 µM
MIC [19]: 7.41 µM (≈ 15.6 µg/mL)
MIC (Escherichia coli K-12): ≥ 100 µM
MIC [20]: 0.0474 µM (≈ 0.0999 µg/mL)
MIC [21]: 0.925 µM (≈ 1.95 µg/mL)
MIC [22]: 0.949 µM (≈ 2 µg/mL)
MIC (Shigella flexneri CP87): 0.0474 µM (≈ 0.0999 µg/mL)
Compound: CC[C@H](C)[C@H](NC(=O)[C@H](CCCNC(=N)N)NC(=O)[C@@H]1CCCN1C(=O)[C@H](Cc1cnc[nH]1)NC(=O)[C@@H]1CCCN1C(=O)[C@@H]1CCCN1C(=O)[C@H](CCCNC(=N)N)NC(=O)[C@@H]1CCCN1C(=O)[C@H](CCC(N)=O)NC(=O)[C@@H]1CCCN1C(=O)[C@@H](NC(=O)[C@H](Cc1ccc(O)cc1)NC(=O)[C@@H](NC(=O)[C@@H]1CCCN1C(=O)[C@H](CCCNC(=N)N)NC(=O)[C@H](CC(N)=O)NC(=O)[C@H](CC(N)=O)NC(=O)CN)C(C)C)[C@@H](C)CC)C(=O)O [GNNRPVYIPQPRPPHPRI]

MIC (Spiroplasma citri R8A2): ≥ 100 µM
MIC [23]: ≥ 100 µM
Compound: CC(C)C[C@H](NC(=O)[C@H](CC(C)C)NC(=O)[C@H](CCCCN)NC(=O)[C@H](CC(C)C)NC(=O)[C@H](CC(C)C)NC(=O)[C@H](CC(C)C)NC(=O)[C@H](CCCCN)NC(=O)[C@@H](N)CC(C)C)C(=O)N[C@@H](CCCCN)C(=O)O [LKLLLKLLK]

MIC [24]: 3 µM (≈ 25.8 µg/mL)
MIC [25]: 3 µM (≈ 25.8 µg/mL)
MIC [26]: 1 µM (≈ 8.58 µg/mL)
MIC (Candida albicans): 10 µM (≈ 85.8 µg/mL)
MIC [27]: 1 µM (≈ 8.58 µg/mL)
MIC [28]: 10 µM (≈ 85.8 µg/mL)
MIC (Micrococcus luteus A270): 2 µM (≈ 17.2 µg/mL)
MIC [29]: 10 µM (≈ 85.8 µg/mL)
MIC (Aspergillus fumigatus): 5 µM (≈ 42.9 µg/mL)
MIC (Bacillus megaterium MA): 0.2 µM (≈ 1.72 µg/mL)
Compound: CC[C@H](C)[C@H](NC(=O)[C@H](CCCN=C(N)N)NC(=O)[C@H](CCC(=O)O)NC(=O)[C@H](CC(=O)O)NC(=O)CNC(=O)[C@H](CCCN=C(N)N)NC(=O)[C@H](CC(C)C)NC(=O)[C@@H](NC(=O)[C@H](CCC(=O)O)NC(=O)[C@H](Cc1ccccc1)NC(=O)[C@@H]1CSSC[C@H](NC(=O)[C@H](CCCCN)NC(=O)[C@H](CCSC)NC(=O)[C@@H](NC(=O)[C@H](CCC(=O)O)NC(=O)[C@@H](NC(=O)[C@H](CC(=O)O)NC(=O)CNC(=O)[C@H](CCCCN)NC(=O)[C@H](CC(N)=O)NC(=O)[C@H](CCSC)NC(=O)[C@@H]2CCCN2C(=O)[C@H](CO)NC(=O)[C@H](CC(N)=O)NC(=O)[C@@H](NC(=O)[C@@H]2CCCN2C(=O)[C@@H](N)CC(C)C)C(C)C)[C@@H](C)O)C(C)C)C(=O)N[C@@H]([C@@H](C)CC)C(=O)N[C@@H](C(C)C)C(=O)N[C@@H](CCC(=O)O)C(=O)N[C@@H](C(C)C)C(=O)N[C@@H]([C@@H](C)CC)C(=O)N[C@@H](CO)C(=O)N[C@@H](CC(=O)O)C(=O)N[C@@H]([C@@H](C)O)C(=O)N[C@@H](CC(C)C)C(=O)N[C@@H](CO)C(=O)N[C@@H](CCCCN)C(=O)N2CCC[C@H]2C(=O)N[C@@H](CO)C(=O)N2CCC[C@H]2C(=O)N[C@@H](CCSC)C(=O)N2CCC[C@H]2C(=O)N[C@@H](C(C)C)C(=O)N[C@@H](CO)C(=O)N[C@@H](CCCCN)C(=O)N[C@@H](CCC(=O)O)C(=O)N1)[C@@H](C)O)C(=O)N[C@@H](CC(C)C)C(=O)N[C@@H](CO)C(=O)N[C@H](C(=O)N[C@@H](CC(C)C)C(=O)N[C@@H](CCCN=C(N)N)C(=O)N[C@@H](Cc1cnc[nH]1)C(=O)N[C@@H](CCC(N)=O)C(=O)N[C@@H](CC(N)=O)C(=O)N[C@@H](CC(C)C)C(=O)N[C@@H](CC(C)C)C(=O)N[C@@H](CCCCN)C(=O)N[C@@H](CCC(=O)O)C(=O)N[C@@H](CC(C)C)C(=O)N[C@@H](CCC(N)=O)C(=O)N[C@@H](CC(=O)O)C(=O)N[C@@H](CC(C)C)C(=O)N[C@@H](C)C(=O)N[C@@H](CC(C)C)C(=O)N[C@@H](CCC(N)=O)C(=O)NCC(=O)N[C@@H](C)C(=O)N[C@@H](CCCCN)C(=O)N[C@@H](CCC(=O)O)C(=O)N[C@@H](CCCN=C(N)N)C(=O)N[C@H](C(=O)N[C@@H](Cc1cnc[nH]1)C(=O)N[C@@H](CCC(N)=O)C(=O)N[C@@H](CCC(N)=O)C(=O)O)[C@@H](C)O)[C@@H](C)CC [LPVNSPMNKGDTEVMKCIVEVISDTLSKPSPMPVSKECFETLRGDERILSILRHQNLLKELQDLALQGAKERTHQQ]
